Measured values published in patent publication US20200276174A1, “CYCLIN-DEPENDENT KINASE INHIBITORS IN COMBINATION WITH ANTHRACYCLINES FOR TREATMENT OF CANCER” (TOLERO PHARMACEUTICALS, INC., priority 2018, published 2020).
“And” between values parts separate entries of the source, which are not always exact repeats. Identical values can stand only once. Like-named read-outs stand apart in the source and are kept apart here.

Key:
[1] = statement only; prodrugs described in WO 2016/187316; cited from earlier work
[2] = system: AML cell lines (OCI-AML3, U937, Molm-13, MV4-11); assay: 72-hour viability assay using CellTiter-Glo, single agents in AML cell lines; type: cell-based; conditions: for IC50: read-out: single agent IC50 values; for comparison of IC50s/activity across cell lines: single agent
Description: (A) OCI-AML3, (B) U937, (C) Molm-13, and (D) MV4-11 cells were treated with alvocidib, cytarabine, or daunorubicin, as single agents, in viability assays using CellTiter-Glo according to manufacturer protocol.

[3] = system: MCL-1 expression in MV4-11 cells; assay: MCL-1 expression during the alvocidib+cytarabine+daunorubicin regimen modeled in vitro; type: cell-based; conditions: alvocidib 80 nM, washed out prior to cytarabine (100 nM) addition, daunorubicin 3 nM, in sequence
Description: MCL-1 expression during the alvocidib+cytarabine+daunorubicin regimen was modeled in vitro. MV4-11 cells were treated with alvocidib (80 nM), cytarabine (100 nM), or daunorubicin (3 nM), in the sequence shown. Alvocidib (or palbociclib) was washed out prior to cytarabine addition.

MV4-11 AML xenograft = MV4-11 AML xenograft model; type: in vivo, female athymic nude mice
Description: Alvocidib with a cytarabine and daunorubicin regimen were tested in vivo in the MV4-11 AML xenograft model using female athymic nude mice.
ACD (alvocidib+cytarabine+daunorubicin) is an active regimen in MV4-11 AML xenografts. (A) Tumor volume measurements show decreases following the sequential dosing of alvocidib (qdx2), cytarabine (qdx2), and daunorubicin (qdx1). This five day cycle was repeated twice. […] Doses indicated in mg/kg.
Treatment of alvocidib (1.25 mg/kg) yielded 60.0% TGI.

previously untreated AML = conditions: for MRD− (%) / MRD−, number of patients: of all patients evaluable for response
Description: The starting dose of alvocidib is 20 mg/m^2 as a 30-minute intravenous (IV) bolus followed by 30 mg/m^2 over 4 hours as an IV infusion administered daily on Days 1-3 of induction. The dose of alvocidib administered in the IV infusion is escalated in 10 mg/m^2 increments to 60 mg/m^2 to determine the maximum tolerated dose and to identify any dose limiting toxicity.
Beginning on Day 5, cytarabine is administered as a 100 mg/m^2/day continuous IV infusion for seven consecutive days (Days 5-11) plus daunorubicin administered at a bolus dosage of 60 mg/m^2 IV on Days 5-7.
The key eligibility criteria were: ages 18-65 years, previously untreated AML, ECOG PS 0-2, and no major organ dysfunction. Treatment consisted of increasing dose levels of alvocidib starting at 20 mg/m^2 as a 30-minute IV bolus followed by 30 mg/m^2 over 4 hours on days 1-3, cytarabine 100 mg/m^2/day by continuous IV infusion on days 5-11, followed by (e.g., followed about 30 minutes later by) daunorubicin 60 mg/m^2 IV on days 5-7. Dose escalation portion was assessed by standard 3+3 design. All patients received a day 14 bone marrow biopsy. Reinduction therapy with alvocidib (same dose as induction) days 1-3, followed by cytarabine 100 mg/m^2/day continuous IV on days 5-9, and daunorubicin 45 mg/m^2 IV days 5-6 was recommended in patients with >10% and >5% cellularity and blasts, respectively.

[4] = 72-hour viability, CellTiter-Glo, one range printed for all three agents over OCI-AML3, U937, Molm-13, MV4-11
[5] = Intermediate- and High-risk, evaluable for MRD status N = 9, alvocidib plus 7+3
[6] = Intermediate- and High-risk, evaluable for response N = 10, alvocidib plus 7+3
[7] = Intermediate- and High-risk, alvocidib plus 7+3

CN1CC[C@H](c2c(OP(=O)(O)O)cc(O)c3c(=O)cc(-c4ccccc4Cl)oc23)[C@H](O)C1 [Structural Formula I]
oral bioavailability [1]: orally bioavailable

CN1CC[C@H](c2c(O)cc(O)c3c(=O)cc(-c4ccccc4Cl)oc23)[C@H](O)C1 [alvocidib]
IC50 [2, 4]: 2.2 to 567 nM | MCL-1 expression [3]: suppresses MCL-1 expression throughout the treatment regimen of cytarabine and daunorubicin | tumor growth inhibition (TGI) (MV4-11 AML xenograft; alvocidib 1.25 mg/kg): 60.0% | MRD− (%) (previously untreated AML; All Risks, alvocidib plus 7+3): (67) % | MRD−, number of patients (previously untreated AML; All Risks, alvocidib plus 7+3): 10/15 | MRD− Evaluable, number of patients (previously untreated AML; All Risks, patients evaluable for MRD status N = 14, alvocidib plus 7+3): 10/14 | CR/CRi, number of patients (previously untreated AML; All Risks, patients evaluable for response N = 15, alvocidib plus 7+3, all dose levels): 12/15 and 12 | MRD− Evaluable (%) (previously untreated AML; [5]): (56) % | MRD− Evaluable, number of patients (previously untreated AML; [5]): 5/9 | CR/CRi (%) (previously untreated AML; [6]): (70) % | CR/CRi, number of patients (previously untreated AML; [6]): 7 | MRD− (%) (previously untreated AML; [7]): (50) % | MRD−, number of patients (previously untreated AML; [7]): 5/10 | MTD, IV bolus part (previously untreated AML; human, in vivo, iv): 30 mg/m^2 | MTD, infusion part (previously untreated AML; human, in vivo, iv): 60 mg/m^2 | MRD Status (previously untreated AML; per patient, alvocidib dose level 20, 30 mg/m^2 (bolus, infusion) days 1-3, then 7+3): Negative | MRD Status (previously untreated AML; per patient, alvocidib dose level 30, 40 mg/m^2 (bolus, infusion) days 1-3, then 7+3): Negative | Best Response (previously untreated AML; per patient, alvocidib dose level 30, 60 mg/m^2 (bolus, infusion) days 1-3, then 7+3, PD = progression of disease): CRi

Nc1ccn([C@@H]2O[C@H](CO)[C@@H](O)[C@@H]2O)c(=O)n1 [cytarabine]
IC50 [2, 4]: 2.2 to 567 nM | comparison of IC50s/activity across cell lines ([2]; 72-hour viability): differing activities in Molm-13, in comparison to OCI-AML3 | tumor growth inhibition (TGI) (MV4-11 AML xenograft; single agent cytarabine 60 mg/kg): 48.5%

COc1cccc2c1C(=O)c1c(O)c3c(c(O)c1C2=O)C[C@@](O)(C(C)=O)C[C@@H]3O[C@H]1C[C@H](N)[C@H](O)[C@H](C)O1 [daunorubicin]
comparison of IC50s/activity across cell lines ([2]; 72-hour viability): differing activities in Molm-13, in comparison to OCI-AML3 | IC50 ([2]; 72 h): 2.2 to 567 nM | tumor growth inhibition (TGI) (MV4-11 AML xenograft; single agent daunorubicin 0.5 mg/kg): 21.1%
